Values of other authors as cited in US20060201863A1, “Sterilization water tank” (priority 2003, published 2006).

What was measured:
Bacteria = details: against Bacteria
Colitis germs [1] = details: against Colitis germs
Staphylococcus = details: against Staphylococcus
Pseudomonas aeruginosa = details: against Pseudomonas aeruginosa
Salmonella = details: against Salmonella
Pneumonia bacillus = details: against Pneumonia bacillus
Rice-straw bacillus = details: against Rice-straw bacillus
Colitis germs [2] = details: silver in an ionized state

Structure (SMILES)	MIC (minimum inhibitory concentration) (Bacteria)	MIC (minimum inhibitory concentration) (Colitis germs [1])	MIC (minimum inhibitory concentration) (Staphylococcus)	MIC (minimum inhibitory concentration) (Pseudomonas aeruginosa)	MIC (minimum inhibitory concentration) (Salmonella)	MIC (minimum inhibitory concentration) (Pneumonia bacillus)	MIC (minimum inhibitory concentration) (Rice-straw bacillus)	amount that may kill colitis germs (Colitis germs [2])
[Cu+2] [Copper ion, reference compound]	400 ppm	200 ppm	400 ppm	400 ppm	400 ppm	200 ppm	400 ppm	
[Ag+] [Silver ion]	0.78 ppm	6.3 ppm	0.78 ppm	0.78 ppm	0.78 ppm	0.78 ppm	1.56 ppm	about several ten
